PubChem BioAssay (NCI)
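Each compound was tested at five concentrations against cells in 96-well plates for 48 hours. GI50 marks 50% less growth. The concentration for full growth arrest is given as TGI.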

Tests used:
Experiment in all cases: growth of human tumour cells (NCI), 48 h
[1] = tested on: A549 NSCLC
[2] = tested on: HCT-15 colon
[3] = tested on: LOX IMVI melanoma
[4] = tested on: NCI-H226 lung
[5] = tested on: OVCAR-5 ovarian
[6] = tested on: SK-MEL-2 melanoma
[7] = tested on: SN12C renal
[8] = tested on: SNB-75 CNS
[9] = tested on: T-47D breast
[10] = tested on: EKVX NSCLC

Q: For `Cn1c(C(=O)c2cccc3ccccc23)nc2ccccc21`, which GI50 [1] is on record?
A: > 100 µM

Q: And the TGI [1]?
A: > 100 µM

Q: And the GI50 [2]?
A: > 100 µM

Q: And the TGI [2]?
A: > 100 µM

Q: What about the GI50 [3] of the same compound?
A: > 100 µM

Q: What about the TGI [3] of the same compound?
A: > 100 µM

Q: And the GI50 [4]?
A: > 100 µM

Q: And the TGI [4]?
A: > 100 µM

Q: What about the GI50 [5] of the same compound?
A: > 100 µM

Q: And the TGI [5]?
A: > 100 µM

Q: What about the GI50 [6] of the same compound?
A: > 100 µM

Q: What about the TGI [6] of the same compound?
A: > 100 µM

Q: What about the GI50 [7] of the same compound?
A: > 100 µM

Q: And the TGI [7]?
A: > 100 µM

Q: What about the GI50 [8] of the same compound?
A: 15.3 µM

Q: What about the TGI [8] of the same compound?
A: > 100 µM

Q: And the GI50 [9]?
A: 22 µM

Q: And the TGI [9]?
A: > 100 µM

Q: Which results are given for `N#CC1C(N)=NNC12Nc1ccccc1S2` (stereo not drawn)?
A: GI50 [1]: 9.61 µM; TGI [1]: 31.5 µM; GI50 [10]: 15.4 µM; TGI [10]: 60.9 µM; GI50 [2]: 15.5 µM; TGI [2]: 64.2 µM; GI50 [3]: 18.4 µM; TGI [3]: 37.6 µM; GI50 [5]: 31.5 µM; TGI [5]: 76.5 µM; GI50 [6]: 6.28 µM; TGI [6]: 43.9 µM; GI50 [7]: 24.4 µM; TGI [7]: 60.2 µM; GI50 [9]: 4.04 µM; TGI [9]: 50.3 µM

Q: `Clc1ccc([I+]c2ccc(Cl)cc2Cl)c(Cl)c1` was tested. Which GI50 [1] did it give?
A: 2.66 µM

Q: What about the TGI [1] of the same compound?
A: 7.71 µM

Q: And the GI50 [2]?
A: 2.06 µM

Q: And the TGI [2]?
A: 5.25 µM

Q: And the GI50 [3]?
A: 1.77 µM

Q: What about the TGI [3] of the same compound?
A: 3.36 µM

Q: And the GI50 [5]?
A: 1.8 µM

Q: And the TGI [5]?
A: 3.8 µM

Q: What about the GI50 [6] of the same compound?
A: 2.62 µM

Q: What about the TGI [6] of the same compound?
A: 5 µM

Q: What about the GI50 [7] of the same compound?
A: 1.85 µM

Q: What about the TGI [7] of the same compound?
A: 3.9 µM

Q: And the GI50 [8]?
A: 1.88 µM

Q: And the TGI [8]?
A: 5.39 µM

Q: How did the TGI [1] turn out when `CC1CCC2(C)C(CC=C(C=O)C2(O)C=O)C12CO2` (stereo not drawn) was run?
A: 26.4 µM

Q: And the TGI [10]?
A: 23.3 µM

Q: And the TGI [2]?
A: 5.95 µM

Q: What about the TGI [3] of the same compound?
A: 7.47 µM

Q: What about the TGI [4] of the same compound?
A: 4.99 µM

Q: What about the TGI [5] of the same compound?
A: 8.03 µM

Q: And the TGI [6]?
A: 8.53 µM

Q: What about the TGI [7] of the same compound?
A: 8.59 µM

Q: Which results are given for `CCN(Cc1ccc(F)cc1)c1ccc(CO)c(C(F)(F)F)c1`?
A: GI50 [1]: 10.9 µM; TGI [1]: 23.5 µM; GI50 [2]: 14.4 µM; TGI [2]: 29.4 µM; GI50 [3]: 17.5 µM; TGI [3]: 31.3 µM; GI50 [5]: 1.28 µM; TGI [5]: 5 µM; GI50 [6]: 15.1 µM; TGI [6]: 32.5 µM; GI50 [7]: 12.9 µM; TGI [7]: 25.5 µM; GI50 [8]: 14.3 µM; TGI [8]: 30.6 µM; GI50 [9]: 1.84 µM; TGI [9]: 10.4 µM

Q: What does the source list for `c1ccc(C2CCCCC2)c(OCCCCCN2CCNCC2)c1`?
A: GI50 [1]: 4.81 µM; TGI [1]: 20.2 µM; GI50 [10]: 4.07 µM; TGI [10]: 19.9 µM; GI50 [2]: 1.83 µM; TGI [2]: 4.05 µM; GI50 [3]: 1.59 µM; TGI [3]: 3.01 µM; GI50 [4]: 22.4 µM; TGI [4]: 48.5 µM; GI50 [5]: 3.46 µM; TGI [5]: 13 µM; GI50 [7]: 2.93 µM; TGI [7]: 18.1 µM; GI50 [8]: 1.32 µM; TGI [8]: 3.54 µM; GI50 [9]: 1.92 µM; TGI [9]: 5.16 µM

Q: Which results are given for `O=C(c1c(O)cc(O)cc1O)C1Cc2ccccc21` (stereo not drawn)?
A: TGI [1]: > 100 µM; TGI [2]: > 100 µM; TGI [3]: > 100 µM; TGI [4]: > 100 µM; TGI [5]: > 100 µM; TGI [6]: > 100 µM; TGI [7]: > 100 µM; TGI [8]: 60.9 µM

Q: `COC1=C(OC)[C@]2(OC)c3c(O)c(OC)c4c(c3O[C@@]23O[C@@H](c2ccccc2)CC=C3C1=O)[C@@H](OC)C[C@H](c1ccccc1)O4` was tested. Which GI50 [1] did it give?
A: 2.21 µM

Q: And the TGI [1]?
A: 5.02 µM

Q: What about the GI50 [10] of the same compound?
A: 1.3 µM

Q: And the TGI [10]?
A: 2.75 µM

Q: And the GI50 [2]?
A: 0.29 µM

Q: What about the TGI [2] of the same compound?
A: 0.819 µM

Q: And the GI50 [3]?
A: 1.58 µM

Q: And the TGI [3]?
A: 3.31 µM

Q: What about the GI50 [5] of the same compound?
A: 1.5 µM

Q: What about the TGI [5] of the same compound?
A: 2.93 µM

Q: And the GI50 [7]?
A: 0.317 µM

Q: And the TGI [7]?
A: 1.03 µM

Q: What about the GI50 [8] of the same compound?
A: 1.36 µM

Q: And the TGI [8]?
A: 2.79 µM

Q: And the GI50 [9]?
A: 0.564 µM

Q: What about the TGI [9] of the same compound?
A: 1.71 µM

Q: With `CN1C(=NCCO)NS(=O)(=O)c2ccccc21` as the compound, how does the TGI [1] read?
A: > 100 µM

Q: What about the TGI [10] of the same compound?
A: > 100 µM

Q: And the TGI [2]?
A: > 100 µM

Q: And the TGI [3]?
A: > 100 µM

Q: And the TGI [4]?
A: > 100 µM

Q: What about the TGI [5] of the same compound?
A: > 100 µM

Q: What about the TGI [6] of the same compound?
A: > 100 µM

Q: And the TGI [7]?
A: > 100 µM

Q: And the TGI [9]?
A: > 100 µM
